From the supplement of paper PMC5579334
± gives the standard deviation of the averaged measurements.

Columns and labels:
[1] = system: HSC1 (primary human Schwann cells); experiment: drug sensitivity score (DSS, CellTox-Green cytotoxicity, 72 h) (DSS (dimensionless)); higher = more cytotoxic; extreme values may be limits of the assay
How it was run: (§1)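 MPNST cell lines and primary human Schwann cells were grown for 72 h at 37 °C in 384-well plates containing five 10-fold compound dilutions. CellTox-Green, added before seeding at a final 1:1000 dilution, gave fluorescence from DNA released by disrupted cells, and signals were scaled to vehicle and positive-control wells. Curves were fitted with a four-parameter logistic model. Drug sensitivity score and relative IC50 come from these fits, with IC50 censored at the top concentration.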

STS26T [2] = experiment: as above
How it was run: as §1

S1507-2 [3] = experiment: as above
How it was run: as §1

HS-PSS [4] = experiment: as above
How it was run: as §1

[5] = system: HSC2 (primary human Schwann cells); experiment: as above
How it was run: as §1

ST8814 [6] = experiment: as above
How it was run: as §1

[7] = system: HSC1 (primary human Schwann cells); experiment: drug sensitivity score (DSS, CellTiter-Glo viability, 72 h) (DSS (dimensionless)); higher = more sensitive; extreme values may be limits of the assay
How it was run: (§2)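 Viability of MPNST cell lines and primary human Schwann cells was read as CellTiter-Glo ATP luminescence after 72 h at 37 °C, 5% CO2, in 384-well plates seeded with 750–1000 cells per well. Each compound had been preprinted at five concentrations in 10-fold steps. Signals were scaled between vehicle and positive-control wells, duplicates averaged where present, and fitted with four-parameter logistic curves. Drug sensitivity score and relative IC50 (censored at the top concentration) come from those fits, and percent inhibition is taken at the top concentration.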

STS26T [8] = experiment: as above
How it was run: as §2

S1507-2 [9] = experiment: as above
How it was run: as §2

S462 [10] = experiment: as above
How it was run: as §2

HS-PSS [11] = experiment: as above
How it was run: as §2

[12] = system: HSC2 (primary human Schwann cells); experiment: as above
How it was run: as §2

HS-Sch-2 [13] = experiment: as above
How it was run: as §2

ST8814 [14] = experiment: as above
How it was run: as §2

YST-1 [15] = experiment: as above
How it was run: as §2

[16] = system: HSC1 (primary human Schwann cells); experiment: % inhibition of CellTiter-Glo viability at highest tested concentration (72 h), relative to DMSO and benzethonium chloride controls; higher = more inhibition
How it was run: as §2

STS26T [17] = experiment: as above
How it was run: as §2

S1507-2 [18] = experiment: as above
How it was run: as §2

S462 [19] = experiment: as above
How it was run: as §2

HS-PSS [20] = experiment: as above
How it was run: as §2

[21] = system: HSC2 (primary human Schwann cells); experiment: as above
How it was run: as §2

HS-Sch-2 [22] = experiment: as above
How it was run: as §2

ST8814 [23] = experiment: as above
How it was run: as §2

YST-1 [24] = experiment: as above
How it was run: as §2

SMILES	drug sensitivity score [1]	drug sensitivity score (STS26T [2])	drug sensitivity score (S1507-2 [3])	drug sensitivity score (HS-PSS [4])	drug sensitivity score [5]	drug sensitivity score (ST8814 [6])	drug sensitivity score [7]	drug sensitivity score (STS26T [8])	drug sensitivity score (S1507-2 [9])	drug sensitivity score (S462 [10])	drug sensitivity score (HS-PSS [11])	drug sensitivity score [12]	drug sensitivity score (HS-Sch-2 [13])	drug sensitivity score (ST8814 [14])	drug sensitivity score (YST-1 [15])	% inhibition [16] [%]	% inhibition (STS26T [17]) [%]	% inhibition (S1507-2 [18]) [%]	% inhibition (S462 [19]) [%]	% inhibition (HS-PSS [20]) [%]	% inhibition [21] [%]	% inhibition (HS-Sch-2 [22]) [%]	% inhibition (ST8814 [23]) [%]	% inhibition (YST-1 [24]) [%]
CC(C)Cn1cnc2c(N)nc3ccccc3c21 [Imiquimod] (max concentration tested 2500 nM)	0	0	0	0	0	0	0	0	0	0	0.9	0	0.45	0	0	-1.61	3.07	-4.77 ± 3.7	1.41 ± 6.7	14.8	6.67	16.9	-6.88	4.76
CC(C)C(=O)Nc1ccc([N+](=O)[O-])c(C(F)(F)F)c1 [Flutamide] (max concentration tested 10000 nM)	0	0	0	0	0	0	0	0	0	0	0	0	0	0	0	9.44	9.3	4.01 ± 0.74	5.56 ± 0.56	10.5	5.2	-3.98	4.3	-0.22
NS(=O)(=O)OC[C@@H]1C[C@@H](n2ccc3c(N[C@H]4CCc5ccccc54)ncnc32)C[C@@H]1O [Pevonedistat] (max concentration tested 10000 nM)	4.84	11.7	16.7 ± 2.1	10.7	3	19.3	12	12.7	17.3 ± 1	23.2 ± 1.4	23.8	14.3	28	20	15.2	77.1	83.4	87.5 ± 1.1	96.07 ± 0.96	97	84.4	101	95.6	67.7
